Results reported in US10030020B2, “Spirocycle compounds and methods of making and using same” (Abide Therapeutics, Inc., priority 2016, dated 2018).
Read-outs that look alike come from different tables or passages of the source.

Experiments:
MAGL [1] = target: T1, MAGL (Mus musculus (Mouse), UniProt O35678); experiment: In vitro competitive activity-based protein profiling (mouse brain membrane fraction or cell lysates), MAGL band; assay type: biochemical; settings: 1 μM, read-out: MAGL % Inh 1 μM (mouse)
Description: In Vitro Competitive Activity-Based Protein Profiling.
Proteomes (mouse brain membrane fraction or cell lysates) (50 μL, 1.0 mg/mL total protein concentration) were preincubated with varying concentrations of inhibitors at 37° C. After 30 min, FP—Rh (1.0 μL, 50 μM in DMSO) was added and the mixture was incubated for another 30 min at 37° C. Reactions were quenched with SDS loading buffer (50 μL-4×) and run on SDS-PAGE.

ABHD6 [2] = target: T2, ABHD6 (Mus musculus (Mouse), UniProt Q8R2Y0); experiment: Mouse brain proteomes from inhibitor treated mice (oral gavage, sacrificed 4 h after administration, ABPP analysis), ABHD6; assay type: in vivo, mouse (C57Bl/6J); settings: 5 mg/kg oral gavage
In short: (§1)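 Mice (wild-type C57Bl/6J) receive inhibitor by oral gavage, e.g. in PEG400/Ethanol/PBS (7/2/1). Each animal is killed 4 h later. Brain proteomes are prepared and analyzed by ABPP, giving % inhibition at 5 mg/kg.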

FAAH [3] = target: T3, FAAH (Mus musculus (Mouse), UniProt O08914); experiment: Mouse brain proteomes from inhibitor treated mice (oral gavage, sacrificed 4 h after administration, ABPP analysis), FAAH; assay type: in vivo, mouse (C57Bl/6J); settings: 5 mg/kg oral gavage
In short: as §1

MAGL [4] = target: T1, MAGL; experiment: Mouse brain proteomes from inhibitor treated mice (oral gavage, sacrificed 4 h after administration, ABPP analysis); assay type: in vivo, mouse (C57Bl/6J); settings: 5 mg/kg oral gavage
In short: as §1

MAGL [5] = target: MAGL (Homo sapiens (Human), UniProt Q99685); experiment: In vitro competitive activity-based protein profiling (human prefrontal cortex or cell membrane fractions; hMAGL expressed in HEK293T cells); assay type: biochemical
Description: In Vitro Competitive Activity-Based Protein Profiling (Human).
Proteomes (human prefrontal cortex or cell membrane fractions) (50 μL, 1.0-2.0 mg/mL total protein concentration) were preincubated with varying concentrations of inhibitors at 37° C. After 30 min, FP—Rh or JW912 (1.0 μL, 50 μM in DMSO) was added and the mixture was incubated for another 30 min at room temperature. Reactions were quenched with SDS loading buffer (15 μL-4×) and run on SDS-PAGE.
Recombinant Expression of Human MAGL in HEK293T Cells.
Cell lysates were diluted with mock proteomes for use in competitive ABPP experiments.

ABHD6 [6] = target: T2, ABHD6; experiment: In vitro competitive activity-based protein profiling (mouse brain membrane fraction or cell lysates), ABHD6 band; assay type: biochemical; settings: 1 μM, read-out: ABHD6 % Inh 1 μM (mouse)
In short: (§2)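 Mouse proteome samples (brain membrane fraction or cell lysate, 1.0 mg/mL protein) were pretreated with varying inhibitor concentrations and subsequently probed with fluorophosphonate-rhodamine, each step lasting 30 min at 37° C. Labelled proteins were separated by SDS-PAGE, and band fluorescence was imaged and quantified.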

FAAH [7] = target: T3, FAAH; experiment: In vitro competitive activity-based protein profiling (mouse brain membrane fraction or cell lysates), FAAH band; assay type: biochemical; settings: 1 μM, read-out: FAAH % Inh 1 μM (mouse)
In short: as §2

MAGL (Homo sapiens (Human), UniProt Q99685), sequence (Q99685 whole entry): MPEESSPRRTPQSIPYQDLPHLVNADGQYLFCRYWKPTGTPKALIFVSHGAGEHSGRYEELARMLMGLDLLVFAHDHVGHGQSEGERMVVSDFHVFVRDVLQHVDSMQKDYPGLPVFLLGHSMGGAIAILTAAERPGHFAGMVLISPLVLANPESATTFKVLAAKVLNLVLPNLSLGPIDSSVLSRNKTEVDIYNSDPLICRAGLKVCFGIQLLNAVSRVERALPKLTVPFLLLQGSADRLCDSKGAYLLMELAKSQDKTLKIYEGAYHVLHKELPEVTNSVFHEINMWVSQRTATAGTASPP
T3 sequence (O08914 whole entry): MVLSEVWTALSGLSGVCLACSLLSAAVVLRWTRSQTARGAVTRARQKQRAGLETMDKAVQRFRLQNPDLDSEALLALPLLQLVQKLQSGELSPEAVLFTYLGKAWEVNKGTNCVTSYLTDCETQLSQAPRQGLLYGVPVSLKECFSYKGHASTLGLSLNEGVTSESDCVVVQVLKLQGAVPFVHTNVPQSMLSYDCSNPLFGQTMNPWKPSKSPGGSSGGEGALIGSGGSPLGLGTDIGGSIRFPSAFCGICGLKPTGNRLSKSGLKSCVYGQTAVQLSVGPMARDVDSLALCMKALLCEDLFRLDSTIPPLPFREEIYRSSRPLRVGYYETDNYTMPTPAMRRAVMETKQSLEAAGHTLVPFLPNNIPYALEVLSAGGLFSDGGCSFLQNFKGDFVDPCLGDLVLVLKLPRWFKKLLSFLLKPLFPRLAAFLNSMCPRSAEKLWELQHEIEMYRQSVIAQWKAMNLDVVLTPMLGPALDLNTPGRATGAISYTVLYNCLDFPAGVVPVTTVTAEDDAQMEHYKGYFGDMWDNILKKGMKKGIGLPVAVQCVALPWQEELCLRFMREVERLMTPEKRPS
T2 sequence (Q8R2Y0 whole entry): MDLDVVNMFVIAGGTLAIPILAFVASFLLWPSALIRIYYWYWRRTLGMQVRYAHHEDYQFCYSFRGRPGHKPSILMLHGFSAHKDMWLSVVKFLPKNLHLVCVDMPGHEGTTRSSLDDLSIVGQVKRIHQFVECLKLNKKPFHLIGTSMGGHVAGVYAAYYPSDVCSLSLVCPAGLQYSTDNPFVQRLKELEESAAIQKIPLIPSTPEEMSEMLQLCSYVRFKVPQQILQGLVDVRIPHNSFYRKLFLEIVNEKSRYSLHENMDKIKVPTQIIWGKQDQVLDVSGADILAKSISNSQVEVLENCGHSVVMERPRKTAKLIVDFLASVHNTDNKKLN
T1 sequence (O35678 whole entry): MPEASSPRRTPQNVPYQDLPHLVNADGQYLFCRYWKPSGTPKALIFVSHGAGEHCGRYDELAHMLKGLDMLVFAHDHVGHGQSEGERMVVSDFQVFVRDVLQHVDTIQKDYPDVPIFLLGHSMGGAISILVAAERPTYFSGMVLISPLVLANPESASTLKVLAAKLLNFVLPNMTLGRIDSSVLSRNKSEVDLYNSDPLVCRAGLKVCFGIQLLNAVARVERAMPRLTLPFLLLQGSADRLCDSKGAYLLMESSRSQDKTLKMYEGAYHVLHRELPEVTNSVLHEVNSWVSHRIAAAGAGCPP

inhibition at 1 µM (MAGL [1]; mouse) [%] | ABHD6 % Inh 5 mg/kg (mouse) (ABHD6 [2]) | FAAH % Inh 5 mg/kg (mouse) (FAAH [3]) | MAGL % Inh 5 mg/kg (mouse) (MAGL [4]) | IC50 (MAGL [5]; human) [nM] | inhibition at 1 µM (ABHD6 [6]; mouse) [%] | inhibition at 1 µM (FAAH [7]; mouse) [%] | inhibition at 1 µM (MAGL [1]; mouse proteome) [%] | IC50 (MAGL [5]; human proteome, competitive ABPP) [nM] | inhibition at 1 µM (ABHD6 [6]; mouse proteome) [%] | inhibition at 1 µM (FAAH [7]; mouse proteome) [%] | Structure (SMILES)
> 75 | # (# is <25%) | # (# is <25%) | ### (### is ≥75%) | < 100 | < 25 | < 25 |  |  |  |  | O=C(O)C1CCN(Cc2cc(CN3CCCC34CCN(C(=O)OC(C(F)(F)F)C(F)(F)F)CC4)cc(C(F)(F)F)c2)CC1 [Example 244]
 | # (# is <25%) | # (# is <25%) | ### (### is ≥75%) |  |  |  | > 75 | < 100 | < 25 | < 25 | O=C(O)[C@@H]1CCCCN1c1cc(CN2CCCC23CCN(C(=O)OC(C(F)(F)F)C(F)(F)F)CC3)cc(C(F)(F)F)c1 [Example 196, (S)-1-(3-((8-(((1,1,1,3,3,3-Hexafluoropropan-2-yl)oxy)carbonyl)-1,8-diazaspiro[4.5]decan-1-yl)methyl)-5-(trifluoromethyl)phenyl)piperidine-2-carboxylic acid]
> 75 | # (# is <25%) | # (# is <25%) | ### (### is ≥75%) | < 100 | 25 to 75 | < 25 |  |  |  |  | NC(=O)C1CCN(Cc2cc(C(F)(F)F)ccc2CN2CCCC23CCN(C(=O)OC(C(F)(F)F)C(F)(F)F)CC3)CC1 [Example 275]
> 75 | # (# is <25%) | # (# is <25%) | ### (### is ≥75%) | < 100 | < 25 | < 25 |  |  |  |  | O=C(O)C1CCN(c2cc(S(F)(F)(F)(F)F)ccc2CN2CCCC23CCN(C(=O)OC(C(F)(F)F)C(F)(F)F)CC3)CC1 [Example 240]
> 75 | # (# is <25%) | # (# is <25%) | ### (### is ≥75%) | < 100 | < 25 | < 25 |  |  |  |  | O=C(O)C1CCN(c2cc(F)cc(CN3CCCC34CCN(C(=O)OC(C(F)(F)F)C(F)(F)F)CC4)c2)CC1 [Example 236]

Structure (SMILES) | inhibition at 1 µM (MAGL [1]; mouse) [%] | ABHD6 % Inh 5 mg/kg (mouse) (ABHD6 [2]) | FAAH % Inh 5 mg/kg (mouse) (FAAH [3]) | MAGL % Inh 5 mg/kg (mouse) (MAGL [4]) | IC50 (MAGL [5]; human) [nM] | inhibition at 1 µM (ABHD6 [6]; mouse) [%] | inhibition at 1 µM (FAAH [7]; mouse) [%] | inhibition at 1 µM (MAGL [1]; mouse proteome) [%] | IC50 (MAGL [5]; human proteome, competitive ABPP) [nM] | inhibition at 1 µM (ABHD6 [6]; mouse proteome) [%] | inhibition at 1 µM (FAAH [7]; mouse proteome) [%]
O=C(O)C1CCN(Cc2cc(CN3CCCC34CCN(C(=O)OC(C(F)(F)F)C(F)(F)F)CC4)cc(C(F)(F)F)c2)C1 (stereo not drawn) [Example 253] | > 75 | # (# is <25%) | # (# is <25%) | ## (## is equal to or greater than 25% but less than 75%) | < 100 | < 25 | < 25 |  |  |  | 
O=C(O)C1CCN(Cc2cc(CN3CCCC34CCN(C(=O)OC(C(F)(F)F)C(F)(F)F)CC4)cc(OC(F)(F)F)c2)CC1 [Example 269] | > 75 | # (# is <25%) | # (# is <25%) | ## (## is equal to or greater than 25% but less than 75%) | < 100 | < 25 | < 25 |  |  |  | 
O=C(O)C1CCN(Cc2cc(C(F)(F)F)ccc2CN2CCCC23CCN(C(=O)OC(C(F)(F)F)C(F)(F)F)CC3)C1 (stereo not drawn) [Example 262] | > 75 | # (# is <25%) | # (# is <25%) | ## (## is equal to or greater than 25% but less than 75%) | < 100 | < 25 | < 25 |  |  |  | 
O=C(O)C1CCN(Cc2cc(CN3CCCC34CCN(C(=O)OC(C(F)(F)F)C(F)(F)F)CC4)cc(OC(F)(F)F)c2)C1 (stereo not drawn) [Example 270] | > 75 | # (# is <25%) | # (# is <25%) | ## (## is equal to or greater than 25% but less than 75%) | < 100 | < 25 | < 25 |  |  |  | 
